{
  "source": "paper PMC3183052",
  "about": "“Immunoprotectivity of HLA-A2 CTL Peptides Derived from Respiratory Syncytial Virus Fusion Protein in HLA-A2 Transgenic Mouse” (PLoS ONE, 2011)",
  "tested_on": "peptide-loaded dendritic cells from HLA-Tg B6 mice",
  "test": "In vitro CTL assay (CFSE/7-AAD) with pulmonary effector lymphocytes",
  "format": "cell-based, mouse",
  "conditions": "pulmonary effector lymphocytes of immunized, RSV-challenged mice; peptide-loaded CFSE-labeled DCs; E:T 10:1 and 50:1; 7-AAD/CFSE flow cytometry",
  "experimental": "Dendritic cells (DCs) isolated from HLA-A*0201-Tg B6 mice were used as target cells for CTL assay. Briefly, tibia were isolated from 6–8 weeks old mice and rinsed with 75% alcohol before their incubation with lymphocyte culture medium (LCM, RPMI containing 5% FBS, 20 mM HEPES, 50 µM 2-mecaptoenthanol, 1× P/S). The myeloid tissues were removed from the tibia with LCM and filtrated through 40 µm cell strainer (BD Falcon). The filtrates were centrifuged at 1200 rpm for 5 minutes and the cell pellet was resuspended in 2 mL RBC lysis solution (eBioscience), and incubated for 5 minutes followed by addition of 10 mL of 1× PBS buffer to stop lysis. […]\nA non-radioactive assay for cell-mediated cytotoxicity using a green fluorescent probe CFSE to label target cells in combination with 7-amino-actinomycin D (7AAD), a red fluorescent probe to label dead effectors and target cells, was used to assess the presence of RSV F protein-specific CTLs in spleens or lungs of the immunized animals. […] CFSE was measured in FL1 channel and 7-AAD in FL3 channel. The percentage of CFSE/7-AAD double positive target cells (i.e., DCs cell death) was analyzed. […]\nFigure 5 Induction of pulmonary IFN-γ and CTL activity in peptide immunized transgenic mice challenged with RSV. At day 4 post RSV infection, lung homogenates were prepared and the following were measured. […]",
  "data": [
    {"sequence": "YMLTNSELL [peptide 14, HLA-A*0201-restricted 9-mer synthetic peptide from F protein of RSV-B1 strain]", "values": [
      {"measurement": "CTL activity, target cell lysis", "result": "efficient in target cell lysis"}
    ]}
  ]
}
